Results: patent US7632654B2, “Means and methods for detecting endoglycosidase activity” (Academisch Ziekenhuis bij de Universiteit van Amsterdam, priority 2002, dated 2009)

Experiments:
[1] = test system: bacterial chitinase, 39 and 50 kDa forms of human and mouse chitotriosidase and AMCases, fetal calf serum chitinase; experiment: CHIS versus 4-MU-chitobiose as substrate for other chitinases; type: biochemical; conditions: in all cases (not shown)
Method: For this purpose, assays were performed with CHIS and 4-MU-chitobiose as substrate with bacterial chitinase (Sigma), purified recombinant 39 and 50 kDa forms of human and mouse chitotriosidase and AMCases and purified fetal calf serum chitinase.

chitotriosidase = target: T1, chitotriosidase (Homo sapiens, UniProt Q13231); experiment: incubation of pure chitotriosidase with 4-MU-hexosamine and PNP-chitobiose (hydrolysis/transglycosylation); type: biochemical; conditions: substrate alone, 50 microM
T1 construct: made in house
Method: FIG. 2. […] Activity of 50 kDa recombinant human chitotriosidase towards PNPchitobiose, 4MU-hexosamine and a mixture of both substrates. Panel A: incubation 1. Enzyme was incubated with 50 microM PNPchitobiose and the reaction was stopped at indicated time points by adding excess of 0.2 M glycine-NaOH @H1O.3). Release of the hydrolysis product p-nitrophenol was determined spectrometrically at […]. Panel B: incubation 2. Enzyme was incubated with 50 microM 4MU-hexosamine and the reaction was stopped at indicated time points by adding excess of 0.2 M glycine-NaOH (pHlO.3). Release of the hydrolysis product 4-methyl-umbelliferone was determined fluorometrically (excitation at 366 nm; emission at 445 nm). Panel C: incubation 3. Enzyme was incubated with 50 microM PNPchitobiose and 50 microM 4MU-hexosamine and the reaction was stopped at indicated time points by adding excess of 0.2 M glycine-NaOH (pHlO.3). Release of hydrolysis products was measured spectrometrically and fluoremetrically.
FIG. 2A. Transglycosylation by chitotriosidase. Explanation for the outcome of the experiment depictured in FIG. 2. Chitotriosidase is able to remove chitobiose-unit from PNP-chitobiose, resulting in release of PNP that is spectrometrically detected. (FIG. 2 panel A). […]

plasma chitotriosidase [2] = experiment: plasma chitotriosidase in Gaucher patients following therapeutic interventions; type: in vivo, human; conditions: first patients in Europe treated, measured with 4MU-chitotriose, FIG. 7
Source text: Besides its use in the confirmation of the diagnosis of Gaucher disease, the measurement of plasma chitotriosidase activity is extremely valuable in decision making regarding initiation of costly therapeutic intervention and optimizing treatment dosing regimens (Aerts et al, 1997; Young et al., 1997; Cox et al., 2000). […] It can be seen that onset of disease can be accurately monitored by monitoring plasma enzyme level. Initiation of therapy results in reductions of the plasma marker of the pathological Gaucher cells. […] In many countries regular measurement of plasma chitotriosidase is now used to monitor response to therapy and increases in plasma chitotriosidase levels are used as a criterion to initiate treatment. The plasma chitotriosidase now plays an important role in the clinical management of Gaucher patients. The European Working Group on Gaucher Disease has recommended its use.
FIG. 7. […] Responses in plasma enzyme level in the first patient in Europe treated with enzyme replacement therapy (aiglucerase) and the first patient in Europe treated with substrate deprivation therapy (butyldeoxynojirimycin). Enzyme activities were measured with 4MU-chitotriose as described in Hollak et al., 1994.

plasma chitotriosidase [3] = experiment: plasma chitotriosidase in sarcoidosis patients treated with corticosteroids; type: in vivo, human; conditions: sarcoidosis patient, orally 25 mg
Method: Sarcoidosis is treated by administration of corticosteroids. Determination of optimal drug dosage is critical but unfortunately also complicated. It was studied whether plasma chitotriosidase levels change upon treatment. […] However, tapering of the dose to 5 mg per day after 17 weeks was followed by recurrence of disease activity while chitotriosidase activity increment preceded the worsening of symptoms. Another interesting finding concerns a patient that was treated with corticosteroid pulse therapy (1000 mg methyiprednisone for three days every 2 weeks). […] This was accompanied by marked clinical improvement.

CSF chitotriosidase = CSF chitotriosidase in an MS patient under treatment; type: in vivo, human; conditions: one MS patient
Method: Multiple sclerosis (MS) is a presumed T-cell mediated Thi type autoimmune disease. In the pathophysiology of multiple sclerosis (MS) an important role is envisioned for activated T-lymphocytes and macrophages. It is generally thought that macrophages and resident brain microglia are agents of the demyelization that occurs in MS. Chitotriosidase activity was determined in plasma and cerebral spine fluid (CSF) of MS patients. In CSF of patients, but not in plasma, chitotriosidase activity is clearly elevated in relation to manifestation of MS. In a MS patient receiving recombinant beta-1B interferon treatment a concomitant 10-fold reduction in CSF chitotriosidase was noted by us. These findings indicate that chitotriosidase measurement is useful to assess the presence of activated phagocytes in the brain of MS patients and correction therein following treatment.

serum chitotriosidase = serum chitotriosidase after G-CSF or GM-CSF in healthy volunteers; type: in vivo, human; conditions: parallel to lactoferrin
Method: Neutrophil Activation. To test the potential of chitotriosidase as a marker for the release of specific granules of neutrophils, we examined samples obtained in earlier studies in which granulocyte colony stimulating factor (G-CSF) or granulocyte-macrophage colony stimulating factor (GM-CSF) were administered to healthy volunteers. In these experiments it was previously shown that degranulation of the specific granules of neutrophils occurs. Neutrophils release their specific granule content after 2 hours after G-CSF injection, as detectable by the appearance of lactoferrin in the circulation. […] The increase in lactoferrin and chitotriosidase is not due to an increase in neutrophil cell number, because these levels peak later in time, after about 12 hours. A second peak in lactoferrin and chitotriosidase levels is seen after […] after G-CSF injection.

T1 sequence (Q13231 22-466): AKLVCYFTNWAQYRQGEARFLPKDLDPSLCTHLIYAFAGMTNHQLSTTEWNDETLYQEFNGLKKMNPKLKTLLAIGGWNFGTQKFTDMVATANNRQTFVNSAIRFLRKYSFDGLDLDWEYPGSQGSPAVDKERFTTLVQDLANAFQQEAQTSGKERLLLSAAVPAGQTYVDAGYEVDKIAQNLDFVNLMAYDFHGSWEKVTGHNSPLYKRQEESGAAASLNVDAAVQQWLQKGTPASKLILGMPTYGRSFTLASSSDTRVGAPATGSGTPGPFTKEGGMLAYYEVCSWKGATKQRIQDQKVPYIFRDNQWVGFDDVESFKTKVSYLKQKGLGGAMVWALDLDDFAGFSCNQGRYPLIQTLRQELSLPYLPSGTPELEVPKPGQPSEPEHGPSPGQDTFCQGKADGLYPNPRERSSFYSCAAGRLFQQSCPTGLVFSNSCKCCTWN

CC(=O)N[C@H]1[C@H](Oc2ccc3c(C)cc(=O)oc3c2)O[C@H](CO)[C@@H](O[C@@H]2O[C@H](CO)[C@@H](O)[C@H](O)[C@H]2NC(C)=O)[C@@H]1O [4-MU-chitobiose, reference compound]
substrate behaviour with other chitinases [1]: showed apparent substrate inhibition at sub saturating concentrations

CC(=O)N[C@H]1C(Oc2ccc3c(C)cc(=O)oc3c2)O[C@H](CO)[C@@H](O)[C@@H]1O (some centres unmarked) [4-MU-hexosamine, 4-methylumbelliferyl-N-acetyiglucosamine]
substrate of chitotriosidase (release of 4-MU or PNP) (chitotriosidase): no substrate

CC(=O)N[C@H]1[C@H](Oc2ccc([N+](=O)[O-])cc2)O[C@H](CO)[C@@H](O[C@@H]2O[C@H](CO)[C@@H](O)[C@H](O)[C@H]2NC(C)=O)[C@@H]1O [PNP-chitobiose]
substrate of chitotriosidase (release of 4-MU or PNP) (chitotriosidase): is a substrate

CCCCN1C[C@H](O)[C@@H](O)[C@H](O)[C@H]1CO [butyldeoxynojirimycin, reference compound]
response in plasma chitotriosidase (plasma chitotriosidase [2]): Corrections in plasma chitotriosidase

C[C@]12C=CC(=O)C=C1CC[C@@H]1[C@@H]2C(=O)C[C@@]2(C)[C@H]1CC[C@]2(O)C(=O)CO [prednisone]
chitotriosidase activity upon treatment (plasma chitotriosidase [3]): markedly decreased

B1: recombinant beta-1B interferon: recombinant beta-1B interferon treatment of an MS patient (protein, UniProt P01574 22-187, looked up, variant C17S)
Interferon beta: MSYNLLGFLQRSSNFQSQKLLWQLNGRLEYCLKDRMNFDIPEEIKQLQQFQKEDAALTIYEMLQNIFAIFRQDSSSTGWNETIVENLLANVYHQINHLKTVLEEKLEKEDFTRGKLMSSLHLKRYYGRILHYLKAKEYSHCAWTIVRVEILRNFYFINRLTGYLRN
modifications: lacks N-terminal Met, non-glycosylated
notes: recombinant beta-1B interferon treatment of an MS patient
reduction in CSF chitotriosidase (CSF chitotriosidase): 10 fold

B2: aiglucerase: enzyme replacement therapy for Gaucher disease (protein, UniProt P04062 40-536, looked up)
Lysosomal acid …: ARPCIPKSFGYSSVVCVCNATYCDSFDPPTFPALGTFSRYESTRSGRRMELSMGPIQANHTGTGLLLTLQPEQKFQKVKGFGGAMTDAAALNILALSPPAQNLLLKSYFSEEGIGYNIIRVPMASCDFSIRTYTYADTPDDFQLHNFSLPEEDTKLKIPLIHRALQLAQRPVSLLASPWTSPTWLKTNGAVNGKGSLKGQPGDIYHQTWARYFVKFLDAYAEHKLQFWAVTAENEPSAGLLSGYPFQCLGFTPEHQRDFIARDLGPTLANSTHHNVRLLMLDDQRLLLPHWAKVVLTDPEAAKYVHGIAVHWYLDFLAPAKATLGETHRLFPNTMLFASEACVGSKFWEQSVRLGSWDRGMQYSHSIITNLLYHVVGWTDWNLALNPEGGPNWVRNFVDSPIIVDITKDTFYKQPMFYHLGHFSKFIPEGSQRVGLVASQKNDLDAVALMHPDGSAVVVVLNRSSKDVPLTIKDPAVGFLETISPGYSIHTYLWRRQ
modifications: mannose-terminated glycans
notes: enzyme replacement therapy for Gaucher disease
response in plasma chitotriosidase (plasma chitotriosidase [2]): Corrections in plasma chitotriosidase

B3: G-CSF: granulocyte colony stimulating factor (protein, UniProt P09919 31-207, looked up)
Granulocyte …: TPLGPASSLPQSFLLKCLEQVRKIQGDGAALQEKLVSECATYKLCHPEELVLLGHSLGIPWAPLSSCPSQALQLAGCLSQLHSGLFLYQGLLQALEGISPELGPTLDTLQLDVADFATTIWQQMEELGMAPALQPTQGAMPAFASAFQRRAGGVLVASHLQSFLEVSYRVLRHLAQP
serum chitotriosidase levels (serum chitotriosidase): Parallel increases
